In general, IC50 refers to the midpoint of a concentration-inhibition curve.

Structures are written as SMILES.

For this experiment, the target named is T1, IRAK4 kinase protein (Homo sapiens, UniProt Q9NWZ3).
T1 sequence (Q9NWZ3 1-460): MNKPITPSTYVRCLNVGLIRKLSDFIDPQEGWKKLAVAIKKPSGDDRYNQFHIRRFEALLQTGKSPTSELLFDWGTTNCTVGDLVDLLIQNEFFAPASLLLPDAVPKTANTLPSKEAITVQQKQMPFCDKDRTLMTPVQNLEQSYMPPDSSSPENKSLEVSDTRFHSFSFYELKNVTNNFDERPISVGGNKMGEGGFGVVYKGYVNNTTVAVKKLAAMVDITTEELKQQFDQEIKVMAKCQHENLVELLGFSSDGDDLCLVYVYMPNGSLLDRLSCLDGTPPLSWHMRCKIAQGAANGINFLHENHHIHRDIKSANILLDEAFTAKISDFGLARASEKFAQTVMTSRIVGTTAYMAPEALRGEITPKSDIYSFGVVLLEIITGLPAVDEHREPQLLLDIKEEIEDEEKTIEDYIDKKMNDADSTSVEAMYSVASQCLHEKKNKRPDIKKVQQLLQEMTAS
Kind of experiment: IRAK4 kinase inhibition assay (Cisbio HTRF KinEASE-STK S1 kit). Type of experiment: biochemical. Conditions: IRAK4 10 nM, ATP 200 μM, 37° C. 2 hours, read-out: IRAK4 inhibitory activity IC50. Here is the method:
Cisbio HTRF KinEASE-STK SI kit (62S1PEB) was used in this experiment. The experiment/detection buffer, STK Substrate 1-biotin, Streptavidin-XL665, and STK Antibody-Crypatete were all contained in the kit.
The compound/DMSO was added to a 384 plate (PerkinElmer 6008280) using Echo 665. Subsequently, 5 μL of IRAK4 kinase protein dissolved in an experimental buffer [1 volume of 5×kinase buffer+20 mM magnesium chloride (Sigma) solution+1 mM DTT (Alfa Aesar) solution+4 volumes of deionized water] at 2 folds reaction concentration was added (final concentration: 10 nM). The shallow well plate was sealed, shaken, and then centrifuged at 1000 rpm for 1 minute and incubated at room temperature for 5 minutes. 5 μL of a 1:1 mixture of STK Substrate 1-biotin (final concentration: 1 μM) and ATP (Sigma A1852) (final concentration: 200 μM) at 2 folds reaction concentration prepared with the experimental buffer was then added. The shallow well plate was sealed, shaken, then centrifuged at 1000 rpm for 1 minute, and incubated at 37° C. for 2 hours. Subsequently, 10 μL of a 1:1 mixed solution of Streptavidin-XL665 (final concentration: 62.5 nM) and STK-antibody-cryptate dissolved with the detection buffer was added. The shallow well plate was sealed, shaken, then centrifuged at 1000 rpm for 1 minute, and incubated at room temperature for 1 hour. Subsequently, numerical values were read at the wavelength of 620 nm/665 nm by a microplate reader. The data were analyzed by Prism 9.3 software, and the IC50 value of IRAK4 kinase inhibition was fitted by four-parameter Logistic equation. After detection, the compound of the present disclosure has a better IRAK4 kinase inhibitory activity.
(In general: Time-resolved FRET reads energy transfer from a long-lived donor to a nearby acceptor.)
For `Cc1ccc(/C=C2/C(=O)Nc3ccc(S(=O)(=O)Nc4ccc(F)cc4)cc32)o1` [Compound 1], the IC50 is greater than 1000 nM.

For `O=C1Nc2ccc(S(=O)(=O)Nc3ccc(F)cc3)cc2/C1=C/c1cn(C2CCCCC2)nc1C(F)F` [Compound 2], the IC50 was 100 to 500 nM.

As for `O=C1Nc2ccc(S(=O)(=O)Nc3ccc(F)cc3)cc2/C1=C\c1cc2cc(N3CCNCC3)ccc2o1` [Compound 3], the IC50 is less than 100 nM.

Turning to `CCNS(=O)(=O)c1ccc2c(c1)/C(=C\c1cc3cc(N4CCNCC4)ccc3o1)C(=O)N2` [Compound 4], the IC50 is 100 to 500 nM.

With `O=C1Nc2ccc(S(=O)(=O)Nc3ccc(F)cc3)cc2/C1=C/Nc1cn(C2CCCCC2)nc1C(F)F` [Compound 5], the half-maximal inhibitory concentration (IC50) is less than 100 nM.

Regarding `O=C1Nc2ccc(S(=O)(=O)Nc3ccc(F)cc3)cc2/C1=C/Nc1cnn2cc(N3CCNCC3)ccc12` [Compound 6], the IC50 was in the range of 500 to 1000 nM.

Regarding `O=C1Nc2ccc(S(=O)(=O)Nc3ccc(F)cc3)cc2/C1=C/c1cc2ccc(N3CCNCC3)cc2[nH]1` [Compound 7], the IC50 was less than 100 nM.

Take `Cc1c(/C=C2\C(=O)Nc3ccc(S(=O)(=O)Nc4ccc(F)cc4)cc32)[nH]c2cc(N3CCNCC3)ccc12` [Compound 8]: the IC50 was less than 100 nM.

These data come from patent US20260217704A1, “INDOLONE DERIVATIVE HAVING IRAK4 INHIBITORY ACTIVITY, AND PREPARATION METHOD THEREFOR AND USE THEREOF” (DOVETREE MEDICINES UNUS, INC., priority 2023, published 2026).
